Tested on: KB cells
Assay: In vitro cell uptake and internalization studies
Type: cell-based, human
Conditions: two hours of incubation, 37° C.
Description: Cell Culture: KB cells (human cervical carcinoma cell line, HeLa subclone; ACC-136) were purchased from the German Collection of Microorganisms and Cell Cultures (DSMZ, Braunschweig, Germany). The cells were cultured as monolayers at 37° C. in a humidified atmosphere containing 5% CO2. […] FFRPMI medium was supplemented with 10% heat-inactivated fetal calf serum (FCS, as the only source of folate), L-glutamine and antibiotics (penicillin/streptomycin/fungizone). Routine culture treatment was performed twice a week with EDTA (2.5 mmol/l) in PBS.
KB cells were seeded in 12-well plates to grow over night (˜700,000 cells in 2 ml FFRPMI medium/well). [^18F]-3′-aza-2′-fluorofolic acid ([…], 170 kBq) was added to each well. […] After incubation for 1 h or 2 h at 37° C. the cells were washed three times with PBS to determine total cell uptake of 3′-aza-2′-[^18F]fluorofolic acid. […] The cell suspensions were transferred to 4 ml tubes and the samples were counted in a −counter. After homogenization by vortex, the concentration of proteins was determined for each sample by a Micro BCA Protein Assay kit in order to standardize measured radioactivity to the average content of 0.3 mg protein in a single well. […]

## Nc1nc2ncc(CNc3ccc(C(=O)N[C@@H](CCC(=O)O)C(=O)O)c([18F])n3)nc2c(=O)[nH]1 [3′-aza-2′-[^18F]fluorofolic acid]
  Total cell uptake: about 78.17%
Stripping buffer pH 3
  Internalized fraction: 18.56%

Source: patent publication US10357576B2, “18F-labelled folate/antifolate analogues” (MERCK & CIE, priority 2012, dated 2019)
